PubChem BioAssay AID608 (Sanford-Burnham Center for Chemical Genomics, 2007)
Active and inactive are the calls of the source. How the calls were made is not given here.

Target: Peptidyl-prolyl cis-trans isomerase FKBP1A (Homo sapiens) (UniProt P62942)
Test: FKBP12 binders, biophysical, NMR detection (AID 608)
Settings: NMR binding, purified FKBP12

Peptidyl-prolyl cis-trans isomerase FKBP1A (Homo sapiens), sequence (P62942 whole entry, looked up): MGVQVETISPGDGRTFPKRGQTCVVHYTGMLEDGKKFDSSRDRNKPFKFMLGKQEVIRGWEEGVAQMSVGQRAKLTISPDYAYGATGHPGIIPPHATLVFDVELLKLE

SMILES	Kd
FC(F)(F)c1cccc(Cn2c(-c3cscn3)nc3ccccc32)c1	inactive
Cc1sc2nc[nH]c(=S)c2c1C	> 4 mM (inactive)
O=C1CC(=O)N(c2ccccc2)C(=O)N1	> 4 mM (inactive)
Clc1ccc(-n2ccnc2)nn1	> 4 mM (inactive)
O=c1[nH]cc(CN2CCOCC2)c(=O)[nH]1	> 4 mM (inactive)
O=C(O)c1cccc(-n2cccc2)c1	> 4 mM (inactive)
CN1CCN(C(=O)/C=C\C(=O)O)CC1	> 4 mM (inactive)
COc1cccc(-c2cc(=O)c3cc(OC)ccc3o2)c1	> 4 mM (inactive)
O=c1[nH]cc(N2CCCCC2)c(=O)[nH]1	> 4 mM (inactive)
S=C(c1cccnc1)N1CCOCC1	> 4 mM (inactive)
CN(C)CCCN1CNC(=S)NC1	> 4 mM (inactive)
CC(=O)c1cccc(NC(=O)Nc2c(C)nn(C)c2C)c1	> 4 mM (inactive)
O=C(O)Cn1cc(C(=O)c2cccs2)c2ccccc21	> 4 mM (inactive)
C=C1C(=O)O[C@@H]2C[C@@]3(C)CCC[C@H](C)C3=C[C@H]12	> 4 mM (inactive)
COC(=O)[C@]1(C)CC[C@]2(C)CC[C@]3(C)C4=CCc5c(cc(O)c(O)c5C)[C@]4(C)CC[C@@]3(C)C2C1 (some centres not stated)	> 4 mM (inactive)
Cn1cnc2c(Cl)ncnc21	> 4 mM (inactive)
O=C(Nn1cnnc1)c1ccccc1Cl	> 4 mM (inactive)
O=C(Nc1ccc(N2CCOCC2)cc1)c1cnsn1	> 4 mM (inactive)
O=C1CCC(=O)N1c1cccnc1	> 4 mM (inactive)
Cn1c(=O)cc(N2CCCCC2)[nH]c1=O	> 4 mM (inactive)
COc1ccc(-c2nc(N)n(C(C)=O)n2)cc1	> 4 mM (inactive)
OCCN1CCN(C(=S)c2ccc(Cl)cc2)CC1	> 4 mM (inactive)

SMILES	Kd
Cc1cc(=O)n2[nH]c(C)cc2n1	> 4 mM (inactive)
C=C(C)C1(O)OC(=O)C=C1OC (configuration not stated)	> 4 mM (inactive)
O=C(c1ccc2c(c1)OCO2)N1CCC2(CC1)OCCO2	> 4 mM (inactive)
CC(=O)Nc1ccn(-c2ccccc2)n1	> 4 mM (inactive)
O=C(O)c1cc(=O)c2cccc(O)c2[nH]1	> 4 mM (inactive)
Cc1nc2ccc(C(=O)N3CCSCC3)cc2s1	> 4 mM (inactive)
Cn1cnc2c(cnn2-c2ccccc2)c1=O	> 4 mM (inactive)
Cn1c(=O)c2ccccc2n(Cc2ccccc2F)c1=O	> 4 mM (inactive)
CC1(C)Cn2c(nnc2-c2ccccc2)S1	> 4 mM (inactive)
NC(=O)c1ccc(NC(=O)c2cccnc2)cc1	> 4 mM (inactive)
S=C(NCc1cccnc1)NC1CC1	> 4 mM (inactive)
O=C1OC(N2CCOCC2)c2ccccc21 (configuration not stated)	> 4 mM (inactive)
CSc1ccc(S(=O)(=O)N2CCCC2)cc1	> 4 mM (inactive)
O=C(O)CC1C(=O)NCCN1Cc1ccccc1 (configuration not stated)	> 4 mM (inactive)
Nc1ccc2[nH]ccc2c1	> 4 mM (inactive)
CC(C)c1ccc(CCC(=O)N2CCOCC2)cc1	0.0023 mM
CC(C)n1c(-c2ccncc2)n[nH]c1=S	> 4 mM (inactive)
NC(=O)CSc1ccc2nnc(-c3cccs3)n2n1	> 4 mM (inactive)
O=C(COc1ccccc1F)N1CCOCC1	inactive
CN1CCC(=NNC(=O)c2ccco2)CC1	> 4 mM (inactive)
Nc1nc(-c2cccnc2)nn1C(=O)Cc1ccccc1	> 4 mM (inactive)
CCc1noc(C)c1C(=O)N1CCOCC1	> 4 mM (inactive)

SMILES	Kd
Cc1nc(NC2=NCCC(=O)N2)nc2ccccc12	> 4 mM (inactive)
CC(=O)OC1CCC2(C)C(=CC=C3C2CCC2(C)C3CCC2C(C)/C=C/C(C)C(C)C)C1(C)C (configuration not stated)	> 4 mM (inactive)
CC(=O)Nc1ccc(C(=O)NC2=NCCS2)cc1	> 4 mM (inactive)
Nc1nnc(SCc2ccc(F)cc2)s1	> 4 mM (inactive)
NC1=NC(=O)/C(=C\c2ccco2)S1	> 4 mM (inactive)
O=C(Oc1ccc2c(c1)OCC2=O)c1ccccc1	> 4 mM (inactive)
O=C1Cc2ccccc2N1c1ccccc1	> 4 mM (inactive)
COC(=O)CSc1nc(N)cc(=O)[nH]1	> 4 mM (inactive)
CC1(C)O[C@H]2[C@H](O)C[C@](O)(C(N)=O)C[C@H]2O1	> 4 mM (inactive)
O=C(O)c1ccc2nccnc2c1	> 4 mM (inactive)
Cc1cc(Cl)ccc1NC(=O)C(N)=O	> 4 mM (inactive)
OCC1COc2ccccc2O1 (configuration not stated)	> 4 mM (inactive)
COC(=O)C1=CO[C@@H](O[C@@H]2O[C@H](CO)[C@@H](O)[C@H](O)[C@H]2O)[C@@H]2[C@@H](C)[C@@H](O)C[C@H]12	> 4 mM (inactive)
C/C(N)=C/C(=O)N1CCCCC1	> 4 mM (inactive)
NCc1ccc2c(c1)OCCCO2	> 4 mM (inactive)
CSc1ccccc1NC(=O)c1ccncc1	> 4 mM (inactive)
Cc1ccc2nc(NC(=O)CN3CCOCC3)sc2c1	> 4 mM (inactive)
NC(=O)CSc1nnc2ccc3ccccc3n12	> 4 mM (inactive)
Cn1nc(C(=O)NCc2cccnc2)c2ccccc2c1=O	> 4 mM (inactive)
O=C(O)CCn1cncn1	> 4 mM (inactive)
O=C(Nc1cnccn1)c1cccc(C(F)(F)F)c1	> 4 mM (inactive)
CCOC(=O)c1c[nH]c2c(F)cccc2c1=O	> 4 mM (inactive)

SMILES	Kd
O=C(NC1=NCCS1)c1ccc([N+](=O)[O-])cc1Cl	> 4 mM (inactive)
O=C(O)CC[N+](=O)[O-]	> 4 mM (inactive)
COc1c(O)cc2oc3cc(O)c(CC=C(C)C)c(O)c3c(=O)c2c1CC=C(C)C	> 4 mM (inactive)
COc1ccc(N2CC(=O)NC2=O)cc1	> 4 mM (inactive)
C[C@@H]1C(=O)OC2[C@H](O)C34[C@@H]5OC(=O)[C@@]3(O[C@@H]3OC(=O)[C@H](O)[C@@]34[C@H](C(C)(C)C)[C@H]5O)[C@]21O (some centres not stated)	> 4 mM (inactive)
Nc1ccccc1C(=O)N1CCOCC1	> 4 mM (inactive)
O=P1(O)c2ccccc2Nc2ccccc21	> 4 mM (inactive)
OCc1cc(F)cc2c1OCOC2	> 4 mM (inactive)
OC(c1ccccc1)c1ccccn1 (configuration not stated)	> 4 mM (inactive)
CC(=O)CC1(O)C(=O)Nc2ccc(Br)cc21 (configuration not stated)	> 4 mM (inactive)
NC(CCC(=O)Nc1ccc([N+](=O)[O-])cc1)C(=O)O (configuration not stated)	> 4 mM (inactive)
Cc1cc(C(=O)Nc2sc(C)c(C)c2C#N)c(C)o1	> 4 mM (inactive)
O=C1CCC(c2cccs2)=NN1	> 4 mM (inactive)
O=C(c1ccccc1)N1CCN(c2ccccc2F)CC1	> 4 mM (inactive)
Cc1[nH]c2ccccc2c(=O)c1CO	> 4 mM (inactive)
CNC(=O)C(=O)Nc1ccc(C)c(C)c1	> 4 mM (inactive)
C=CCc1ccc(OC(=O)c2ccccc2)c(OC)c1	> 4 mM (inactive)
COc1cc(C(=O)NCC2CCCO2)cc(OC)c1OC (configuration not stated)	> 4 mM (inactive)
COC(=O)C[C@H]1C(C)(C)C(=O)[C@@H]2CC3C4=CC(=O)O[C@@H](c5ccoc5)[C@]4(C)CCC3C1(C)C2=O (some centres not stated)	> 4 mM (inactive)
COc1ccccc1NC(=O)c1cc[n+]([O-])cc1	> 4 mM (inactive)
CC1CN(C(=O)COc2ccccc2Cl)CC(C)O1 (configuration not stated)	> 4 mM (inactive)
